Earlier results on three compounds are cited in US20230263806A1, “METHODS OF TREATING PROTEINOPATHIES” (Woolsey Pharmaceuticals, Inc., priority 2020, published 2023).

Data set [1] concerns the target p38 mitogen-activated protein kinase (Homo sapiens, UniProt Q16539).
The conditions of data set [2]: 1-hydroxy (M3) metabolite, in vivo.
For data set [3], the system named is triple transgenic mouse model (APP Swedish, MAPT P301L, and PSEN1 M146V). The settings on record: 10 mg/kg/day intraperitoneally (57 mg HED).
For another data set, the system named is triple transgenic Mice. The settings on record: 10 or 12 months of age; administered in water at 30 mg/kg and 100 mg/kg.

Each structure is given as a SMILES string. Counter-ions that a name gives are not always drawn.

p38 mitogen-activated protein kinase, sequence (Q16539 2-360 limits assumed): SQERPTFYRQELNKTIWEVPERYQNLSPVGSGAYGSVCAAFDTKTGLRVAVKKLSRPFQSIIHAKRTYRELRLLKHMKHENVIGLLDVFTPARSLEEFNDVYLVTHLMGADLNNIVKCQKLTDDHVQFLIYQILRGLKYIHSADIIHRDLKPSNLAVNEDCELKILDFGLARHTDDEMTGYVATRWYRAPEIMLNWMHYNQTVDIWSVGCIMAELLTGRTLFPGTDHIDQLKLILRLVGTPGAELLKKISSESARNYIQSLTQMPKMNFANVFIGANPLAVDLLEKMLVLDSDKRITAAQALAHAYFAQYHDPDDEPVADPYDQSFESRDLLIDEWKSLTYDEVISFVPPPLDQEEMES

On to `O=c1ncn2nc(Sc3ccc(F)cc3F)ccc2c1-c1c(Cl)cccc1Cl` [Neflamapimod], for which, in data set [1] (Phase 2), the “primary endpoint of improving episodic memory” value was “failed” and the “tau in the cerebrospinal fluid” value is recorded as “reducing tau”. For the same compound, in data set [1] (humans), the Aβ deposition entry was “no effect”.

Take `O=S(=O)(c1cccc2c(O)nccc12)N1CCCNCC1` [M3]: the half-life entry in data set [2] is “about 8 hours”.

On to `O=S(=O)(c1cccc2cnccc12)N1CCCNCC1` [fasudil, Hexahydro-1-(5-isoquinolinesulfonyl)-1H-1,4-diazepine Monohydrochloride Hemihydrate], for which, in data set [3], the “amyloid plaques in vivo” value was “reduce 1 amyloid plaques”. The spatial memory entry with triple transgenic Mice is “did not observe improvements in spatial memory”.
